# Test results taken from ChEMBL document CHEMBL1137330, “Synthesis and pharmacokinetics of valopicitabine (NM283), an efficient prodrug of the potent anti-HCV agent 2'-C-methylcytidine” (J Med Chem, 2006).
# Legend:
# [1] = Urinary excretion in bile duct cannulated Sprague-Dawley rat at 100 mg/kg, po after 72 hrs; assay type: ADME, organism-based; design: dose 100 mg/kg, route oral; settings: urine, read-out: Activity
# [2] = system: Rattus norvegicus; experiment: Urinary excretion in intact Sprague-Dawley rat at 100 mg/kg, po after 168 hrs; assay type: ADME, organism-based, Urine; design: dose 100 mg/kg, route oral; settings: in vivo
# [3] = Biliary excretion in bile duct cannulated Sprague-Dawley rat at 100 mg/kg, po after 72 hrs; assay type: ADME, organism-based; design: dose 100 mg/kg, route oral; settings: read-out: Activity
# [4] = Fecal excretion in bile duct cannulated Sprague-Dawley rat at 100 mg/kg, po after 72 hrs; assay type: ADME, organism-based; design: dose 100 mg/kg, route oral; settings: faeces, read-out: Activity
# [5] = Fecal excretion in intact Sprague-Dawley rat at 100 mg/kg, po after 168 hrs; assay type: ADME, organism-based; design: dose 100 mg/kg, route oral; settings: faeces, read-out: Activity
# [6] = system: Rattus norvegicus; experiment: (§1) AUC (0-t) in jugular vein cannulated Sprague-Dawley rat at 100 mg/kg, po; assay type: ADME, organism-based, Plasma; design: dose 100 mg/kg, route oral; settings: in vivo
# [7] = system: Rattus norvegicus; experiment: Cmax in jugular vein cannulated Sprague-Dawley rat at 100 mg/kg, po administered as prodrug; assay type: ADME, organism-based; design: dose 100 mg/kg, route oral; settings: in vivo
# [8] = Aqueous solubility of the compound; assay type: physicochemical
# [9] = AUC in Sprague-Dawley rat after 15 days at 60 mg/kg/day, iv; assay type: ADME, organism-based; design: route intravenous; settings: plasma
# [10] = system: Rattus norvegicus; experiment: AUC(0-t) in jugular vein cannulated Sprague-Dawley rat at 100 mg/kg, po administered as prodrug; assay type: ADME, organism-based, Plasma; design: dose 100 mg/kg, route oral; settings: in vivo
# [11] = system: Rattus norvegicus; experiment: Terminal half life in jugular vein cannulated Sprague-Dawley rat at 100 mg/kg, po administered as prodrug; assay type: ADME, organism-based; design: dose 100 mg/kg, route oral; settings: in vivo
# [12] = Chemical stability at pH 1.2; assay type: physicochemical; settings: buffer
# [13] = Chemical stability at pH 4.5; assay type: physicochemical; settings: buffer
# [14] = Chemical stability at pH 7.2; assay type: physicochemical; settings: buffer
# [15] = Distribution coefficient, log P of the compound; assay type: physicochemical; settings: octanol/water
# [16] = system: Rattus norvegicus; experiment: Tmax in jugular vein cannulated Sprague-Dawley rat at 100 mg/kg, po administered as prodrug; assay type: ADME, organism-based; design: dose 100 mg/kg, route oral; settings: in vivo
# [17] = system: Rattus norvegicus; experiment: Apparent oral bioavailability in jugular vein cannulated Sprague-Dawley rat at 100 mg/kg, po administered as prodrug; assay type: ADME, organism-based; settings: in vivo
# [18] = Protein binding in rat plasma at 20 uM; assay type: ADME, cell-free; settings: read-out: PPB (converted)
# [19] = Cmax in Sprague-Dawley rat after 15 days at 60 mg/kg/day, iv; assay type: ADME, organism-based; design: dose 60 mg/kg/day, route intravenous; settings: in vivo
# [20] = as §1; assay type: ADME, organism-based, Plasma; design: dose 100 mg/kg, route oral; settings: Sprague-Dawley, plasma
# [21] = species on record: Homo sapiens; experiment: Conversion of prodrug to 2'-C-methylcytidine in human liver cytosol; assay type: ADME, organism-based
# [22] = species on record: Homo sapiens; experiment: Conversion of prodrug to 2'-C-methylcytidine in human liver S9 fraction; assay type: ADME, organism-based
# [23] = Half life at pH 4.5; assay type: ADME; settings: buffer
# [24] = system: Plasma; experiment: Drug level in jugular vein cannulated Sprague-Dawley rat plasma after 12 hrs; assay type: ADME, cell-free
# [25] = Half life in human whole blood; assay type: ADME, organism-based
# [26] = Terminal half life in jugular vein cannulated Sprague-Dawley rat at 100 mg/kg, po; assay type: ADME, organism-based; design: dose 100 mg/kg, route oral; settings: in vivo, read-out: beta t1/2 (converted)
# [27] = Cmax in jugular vein cannulated Sprague-Dawley rat at 100 mg/kg, po; assay type: ADME, organism-based; design: dose 100 mg/kg, route oral; settings: in vivo
# [28] = Half life at pH 7.2; assay type: ADME; settings: buffer
# [29] = Tmax in jugular vein cannulated Sprague-Dawley rat at 100 mg/kg, po; assay type: ADME, organism-based; design: dose 100 mg/kg, route oral; settings: in vivo
# [30] = species on record: Homo sapiens; experiment: Half life in human plasma
structure (smiles),measurement,setting,value
CC(C)C(N)C(=O)O[C@H]1[C@H](CO)O[C@H](n2ccc(N)nc2=O)[14C@@]1(C)O.Cl.Cl (stereo partly drawn),dose excreted at 72 h,[1],29.8%
same,Activity,[2],31.9%
same,dose excreted at 72 h,[3],0.3%
same,dose excreted at 72 h,[4],65.9%
same,dose excreted at 168 h,[5],63.5%
C[C@@]1(O)[C@@H](n2ccc(=O)[nH]c2=O)O[C@@H](CO)[C@@H]1O,AUC,[6],< 0.1 µg/mL
C[C@@]1(O)[C@H](O)[C@@H](CO)O[C@H]1n1ccc(N)nc1=O,Cmax,[7],6120 ng/mL
same,solubility,[8],32 mg/mL
same,AUC at 360 h,[9],74400 ng·h/mL
same,AUC,[10],30000 ng·h/mL
same,beta t1/2,[11],7.1 h
same,Stability,[12],Stable
same,Stability,[13],Stable
same,Stability,[14],Stable
same,logP,[15],-0.965
same,Tmax,[16],2 h
same,F,[17],33.6%
same,fraction unbound at 20 µM,[18],0.95
same,Cmax,[19],75600 ng/mL
CC(C)[C@H](N)C(=O)O[C@@H]1[C@@H](CO)O[C@@H](n2ccc(N)nc2=O)[C@]1(C)O.Cl.Cl [VALOPICITABINE DIHYDROCHLORIDE],solubility,[8],423 mg/mL
same,AUC(0-t),[20],8950 ng·h/mL
same,Activity,[21],30%
same,Activity,[22],30%
same,half-life,[23],146 h
same,Activity,[24],Not Active
same,half-life,[25],0.667 h
same,logP,[15],-1.34
same,half-life,[26],0.64 h
same,Cmax,[27],3620 ng/mL
same,half-life,[28],3.9 h
same,Tmax,[29],1 h
same,fraction unbound at 20 µM,[18],0.93
same,half-life,[30],2.17 h
